From patent US20250268845A1, “BONE REGENERATION COMPOSITION INCLUDING HORDENINE AND USE THEREOF” ([…]., priority 2023, published 2025)

Legend:
osteoclasts [1] = assay: LPS-induced bone destruction in mouse skull, TRAP staining; format: in vivo, mice; conditions: 1 mg/kg intra-calvarially for 5 days after LPS 12.5 mg/kg; skulls harvested 6 days after the first LPS injection day; compared to LPS only; FIG. 6
Procedure: Specifically, 12.5 mg/kg of lipopolysaccharide (LPS) was injected intra-calvarially into the skull of 5-week-old male mice twice in total: once on the first injection day and once 2 days after the first injection day, thereby inducing bone destruction. Thereafter, 1 mg/kg of hordenine was injected intra-calvarially for 5 days, starting 1 day after the first LPS injection day. 6 days after the first LPS injection day, the mice were sacrificed and the skulls were harvested from the mice. Then, the degree of osteoclast differentiation was evaluated by tartrate-resistant acid phosphatase (TRAP) staining. The results thereof are illustrated in FIG. 6.

osteoclasts [2] = assay: Bone resorption assay on dentin disc through hematoxylin staining; format: cell-based, mice; conditions: 10, 20, or 40 μM for 3 days, pre-osteoclasts from BMMs, compared to non-treatment; FIG. 5A
Procedure: (§1) Specifically, bone marrow-derived macrophages (BMMs) were isolated from 3- to 4-week-old mice and cultured. On day 5, the BMMs were treated with receptor activator of nuclear factors KB ligand (RANKL) and macrophage-colony stimulating factor (M-CSF) for 3 days to be differentiated into pre-osteoclasts. Thereafter, to confirm the degree of osteoclast activation, the pre-osteoclasts were treated with 10, 20, or 40 μM of hordenine for 3 days, and a bone resorption assay through hematoxylin staining and a dentin disc actin ring assay through immunofluorescence staining were performed to confirm the degree of osteoclast activation. Bone resorption assay is a method of seeding osteoclasts on a dentin disc, which is an experimental bone tissue simulating the dentin component of bone, and quantifying the extent to which osteoclasts eat away at the bone. When holes formed by bone erosion are quantified, the pit area is measured, and a lower measurement indicates a lower degree of bone erosion. The more extensively the disc is eroded, the more intensely the disc stains with hematoxylin, while less eroded areas stain more lightly. […]

osteoclasts [3] = assay: Dentin disc actin ring assay through immunofluorescence staining; format: cell-based, mice; conditions: 10, 20, or 40 μM for 3 days, pre-osteoclasts from BMMs, compared to non-treatment; FIG. 5B
Procedure: as §1

[4] = system: osteoarthritis induced by DMM; assay: Cartilage regeneration in DMM-induced osteoarthritis, Safranin O and fast green staining; format: in vivo, mice; conditions: 2 mg/kg intra-articularly for 4 weeks from week 5 after DMM, examined at week 9
Procedure: Specifically, osteoarthritis was induced by incising the ligament that stabilizes the medial meniscus in the joint tissue of 9-week-old mice. Starting from week 5 after destabilization of the medial meniscus (DMM), 2 mg/kg of hordenine was injected intra-articularly for 4 weeks, and at week 9, the mice were sacrificed and the joint tissues were examined by staining with Safranin O and fast green. The experimental process is illustrated in FIG. 2, and the experimental results are illustrated in FIGS. 3A and 3B.

mesenchymal stem cells = assay: Differentiation of mesenchymal stem cells into chondrocytes, Alcian blue staining; format: cell-based; conditions: 5 or 10 µM hordenine, compared to the group treated only with a differentiation medium, FIG. 1
Procedure: Specifically, mesenchymal stem cells were seeded at 2.5×10^4 cells/48 well and divided into a group treated only with the basic medium α-MEM, a group treated only with a differentiation medium (Chondrogenic media (CM)), and groups treated with 5 or 10 µM hordenine. After a few days, the degree of chondrocyte differentiation was evaluated by Alcian blue staining.

CN(C)CCc1ccc(O)cc1 [hordenine, 4-(2-dimethylaminoethyl) phenol]
TRAP staining of skulls (degree of osteoclast differentiation) (osteoclasts [1]): lightly stained with TRAP | hematoxylin staining (bone erosion of dentin disc) (osteoclasts [2]): became lighter in a concentration-dependent manner | pit area (osteoclasts [2]): reduced | number of osteoclasts forming actin rings (osteoclasts [3]): decreased in a concentration-dependent manner | cartilage degradation (OARSI grade) [4]: decrease | osteophytes caused by osteoarthritis induction [4]: reduced | synovitis [4]: reduced | thickness of subchondral bone plate (SBP) [4]: reduced | cartilage (red portion) that had collapsed due to DMM ([4]; FIGS. 3A and 3B): restored | degree of differentiation from mesenchymal stem cells into chondrocytes (mesenchymal stem cells): much higher
